Structures can show the parent of a compound that is named as a salt. Where two headings read alike, the source gives them in different places.
Legend:
[1] = tested on: cardiomyocytes derived from hiPSCs from a LQTS3 patient; assay: cells; conditions: Homo sapiens, Cardiomyocyte
[2] = tested on: cardiomyocytes derived from hiPSCs from a LQTS3 patient; conditions: for LQT-Fold (prolongation): cell in fold shortening column marked (prolongation)
[3] = tested on: normal human induced pluripotent stem cell (hiPSC) cardiomyocyte; conditions: for WT-Fold Prolongation: APD; for WT-Cessation Dose (μM): cessation of beating
[4] = read-out: LQT-EC50 (μM) Shortening, pyridyl derivatives
[5] = read-out: LQT-IC50 (uM)-Shortening
[6] = read-out: LQT-IC50 (prolongation)
[7] = read-out: LQT-EC50 (μM) Shortening, LQT-3 cardiomyocytes, AP shortening
[8] = WT cardiomyocytes, AP prolongation

Row | LQT-Cessation Dose ([2]; LQT3 cardiomyocytes) | Cessation of Beating ([3]; normal hiPSC cardiomyocytes) | Compound | IC50 [1, 5] | LQT-Fold Shortening ([2]; LQT3 cardiomyocytes) | WT-Fold Prolongation ([3]; normal hiPSC cardiomyocytes) | WT-Prolongation Dose ([3]; normal hiPSC cardiomyocytes) | WT-EAD Dose ([3]; normal hiPSC cardiomyocytes) | further results
1 | 133 µM | 133 µM | Cc1cccnc1OCC(=NOCc1ccccc1)c1ccccc1 [Compound 19] | 1.38 µM | 1.406 | None | None | – | EC50 [1, 4]: 1.38 µM; LQT-Fold Shortening ([2]; pyridyl derivatives): 1.406; LQT-Shortening Dose ([2]; pyridyl derivatives): 66 µM; WT-Cessation Dose ([3]; pyridyl derivatives): 133 µM; WT-EC50 (μM) Prolongation ([3]; pyridyl derivatives): Does Not Prolong AP
2 | 133 µM | 66 µM | Cc1cccc(C)c1OCC(C)NC(=O)c1ccccc1 (centres unmarked) [Compound 54] | 57.8 µM | 1.45 | None | None | – | –
3 | 66 µM | 66 µM | Cc1cccc(C)c1OCC(N)c1ccc(C(F)(F)F)cc1 (centres unmarked) [Compound 16, 2-(2,6-dimethylphenoxy)-1-(4-(trifluoromethyl)phenyl)ethanamine] | 1.38 µM | 1.480 | None | None | – | –
4 | – | – | NC(COc1cccc2ccccc12)c1ccccc1 (centres unmarked) [Compound 129] | – | – | – | – | – | EC50 [1, 7]: 0.82 µM; LQT-Fold Shortening ([2]; LQT-3 cardiomyocytes): 1.316; LQT-Cessation Dose ([2]; LQT-3 cardiomyocytes, cessation of beating): 66 µM; WT-EC50 (μM) Prolongation [3, 8]: Does Not Prolong AP
5 | 66 µM | 133 µM | Cc1cccc(OCC(O)c2ccccc2)c1C (centres unmarked) [Compound 32, 2-(2,3-dimethylphenoxy)-1-phenylethanol] | 7.53 µM | 1.355 | None | None | – | –
6 | 66 µM | 133 µM | CCCCNC(C)COc1c(C)cccc1C (centres unmarked) [Compound 39, 1-(2,6-dimethylphenoxy)-N-butylpropan-2-amine] | 0.73 µM | 1.180 | 3.827 | – | 66 µM | –
7 | – | – | Cc1cccc(C)c1OC[C@@H](N)C1CC1.Cl [Compound 60] | 0.11 µM | 1.22 | 2.805 | – | – | LQT-Cessation Dose ([2]; human, 5 min): 200 µM; Cessation of Beating ([3]; human, 5 min): 200 µM; WT-EAD Dose ([3]; human, 5 min): 66 µM
8 | – | – | NC(COc1ccncc1)c1ccccc1 (centres unmarked) [Compound 126] | – | – | – | – | – | EC50 [1, 7]: 3.82 µM; EC50 [1, 4]: ~4 µM; LQT-Fold Shortening ([2]; LQT-3 cardiomyocytes): 1.281; WT-EC50 (μM) Prolongation [3, 8]: Does Not Prolong AP; WT-Cessation Dose (μM) ([3]; WT cardiomyocytes): No cessation of beating
9 | 66 µM | 66 µM | CC(=O)NC(COc1c(C)cccc1C)c1ccccc1 (centres unmarked) [Compound 28, N-(2-(2,6-dimethylphenoxy)-1-phenylethyl)acetamide] | > 0.8 µM | 1.620 | None | None | – | –
10 | 22 µM | 66 µM | CCc1ccccc1OCC(N)c1ccccc1 (centres unmarked) [Compound 24] | 0.38 µM | 1.979 | None | None | – | –
11 | – | – | Cc1ccc(OCC(N)c2ccccc2)cn1 (centres unmarked) [Compound 114] | – | – | – | – | – | EC50 [1, 7]: 67.5 µM; LQT-Fold Shortening ([2]; LQT-3 cardiomyocytes): 1.233; WT-EC50 (μM) Prolongation [3, 8]: Does Not Prolong AP; WT-Cessation Dose (μM) ([3]; WT cardiomyocytes): No cessation of beating
12 | None | None | CCc1ccccc1OCC(C)N (centres unmarked) [Compound 50, 1-(2-Ethylphenoxy)propan-2-amine] | 6.01 µM | 1.12 | 1.392 | – | – | –
13 | – | – | COCCNC(COc1c(C)ccnc1C)c1ccccc1 (centres unmarked) [Compound 122] | – | – | – | – | – | EC50 [1, 7]: 46.6 µM; LQT-Fold Shortening ([2]; LQT-3 cardiomyocytes): 1.188; WT-EC50 (μM) Prolongation [3, 8]: Does Not Prolong AP
14 | None | None | Cc1cccc(Cl)c1OC[C@H](C)N [Compound 57, (S)-1-(2-chloro-6-methylphenoxy)propan-2-amine hydrochloride] | 0.19 µM | 1.14 | 3.615 | – | 200 µM | –
15 | 200 µM | 133 µM | CCCCNC(COc1cccc(C)c1C)c1ccccc1 (centres unmarked) [Compound 30, 2-(2,3-dimethylphenoxy)-N-butyl-1-phenylethanamine] | 20.2 µM | 1.423 | None | None | – | –
16 | None | None | Cc1cccc(C)c1OCC(NC(=O)c1ccccc1)c1ccccc1 (centres unmarked) [Compound 29, N-(2-(2,6-dimethylphenoxy)-1-phenylethyl)benzamide] | > 0.8 µM | 1.64 | None | None | – | –
17 | 22 µM | 22 µM | CCCc1ccccc1OCC(N)c1ccccc1 (centres unmarked) [Compound 23, 1-phenyl-2-(2-propylphenoxy)ethanamine] | 0.78 µM | 1.32 | None | None | – | –
18 | None | None | NC(COc1ncccc1C(F)(F)F)c1ccccc1 (centres unmarked) [Compound 96, 1-phenyl-2-((3-(trifluoromethyl)pyridin-2-yl)oxy)ethan-1-amine] | – | 1.3 | 1.163 | – | – | EC50 [1, 4]: 20.7 µM; LQT-Fold Shortening ([2]; pyridyl derivatives): 1.358; LQT-Shortening Dose ([2]; pyridyl derivatives): 133 µM; WT-Cessation Dose ([3]; pyridyl derivatives): No cessation of beating; WT-EC50 (μM) Prolongation ([3]; pyridyl derivatives): Does Not Prolong AP
19 | 133 µM | 200 µM | CCCc1ccccc1OCC(C)N (centres unmarked) [Compound 49, 1-(2-Propylphenoxy)propan-2-amine] | 0.85 µM | 1.192 | 1.385 | – | – | –
20 | None | None | COCCNC(C)COc1c(C)cccc1C (centres unmarked) [Compound 40, 1-(2,6-dimethylphenoxy)-N-methoxy-ethyl-2-amine] | 2.31 µM | 1.267 | 4.366 | 32 µM | 66 µM | LQT-Shortening Dose ([2]; LQT3 cardiomyocytes): 7.4 µM
21 | – | – | Cc1ncccc1OCC(N)c1ccccc1 (centres unmarked) [Compound 111] | – | – | – | – | – | EC50 [1, 7]: 8.57 µM; EC50 [1, 4]: ~8 µM; LQT-Fold Shortening ([2]; LQT-3 cardiomyocytes): 1.426; LQT-Shortening Dose (μM) ([2]; LQT-3 cardiomyocytes): Does Not Shorten; WT-EC50 (μM) Prolongation [3, 8]: Does Not Prolong AP
22 | 133 µM | 22 µM | COc1ccccc1OCC(N)c1ccccc1 (centres unmarked) [Compound 26, 2-(2-methoxyphenoxy)-1-phenylethanamine] | 0.13 µM | 1.482 | 2.502 | – | 7.4 µM | –
23 | None | None | Cc1cccc(Cl)c1OC[C@@H](C)N [Compound 56] | 0.04 µM | 1.189 | 3.925 | – | 133 µM | –

Row | Compound | LQT-Cessation Dose ([2]; LQT3 cardiomyocytes) | Cessation of Beating ([3]; normal hiPSC cardiomyocytes) | IC50 [1, 5] | LQT-Fold Shortening ([2]; LQT3 cardiomyocytes) | WT-Fold Prolongation ([3]; normal hiPSC cardiomyocytes) | WT-Prolongation Dose ([3]; normal hiPSC cardiomyocytes) | WT-EAD Dose ([3]; normal hiPSC cardiomyocytes) | further results
24 | C[C@H](N)COc1ccccc1.Cl [Compound 72] | None | None | – | – | 2.93 | – | 133 µM | IC50 [1, 6]: 129 µM; LQT-Fold (prolongation) [2]: 1.133 (prolongation)
25 | COCCNC(COc1cc(C)cc(C)c1)C1CC1.Cl (centres unmarked) [Compound 68] | 200 µM | 200 µM | 0.022 µM | 1.11 | 1.686 | – | 66 µM | –
26 | Cl.NC(COc1cccc(C(F)(F)F)c1)c1ccccc1 (centres unmarked) [Compound 81, 1-phenyl-2-(3-(trifluoromethyl)phenoxy)ethan-1-amine] | 66 µM | 66 µM | 4.07 µM | 1.539 | None | None | – | –
27 | Cc1ccc(OCC(N)C2CC2)c(C)c1.Cl (centres unmarked) [Compound 65] | 200 µM | 200 µM | 1.36 µM | 1.119 | 2.12 | – | 66 µM | –
28 | CC(N)COC1CCCCC1.Cl (centres unmarked) [Compound 87] | None | None | 34.8 µM | 1.611 | None | None | – | –
29 | Cc1cc(C)cc(OC[C@H](N)C2CC2)c1.Cl [Compound 63] | 200 µM | None | 7.5 µM | 1.11 | 1.577 | – | 66 µM | –
30 | C[C@@H](N)COc1ccccc1.Cl [Compound 71, (R)-1-phenoxypropan-2-amine hydrochloride] | None | None | – | – | 1.997 | – | 200 µM | IC50 [1, 6]: 194 µM; LQT-Fold (prolongation) [2]: 1.214 (prolongation)
31 | CC(N)COc1cccc(C(F)(F)F)c1.Cl (centres unmarked) [Compound 85] | 200 µM | 200 µM | 31.3 µM | 1.661 | None | None | – | –
32 | Cc1cccc(C)c1OCC(N)C1CCCCC1.Cl (centres unmarked) [Compound 73] | 66 µM | 66 µM | 0.082 µM | 1.136 | None | None | – | –

Source: patent publication US11492325B2, “Compounds as inhibitors of sodium channels” (Human BioMolecular Research Institute, priority 2016, dated 2022)
